Measured values reported in PubChem BioAssay (NCI).
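48-hour exposure; five concentrations; linearly interpolated endpoints. At the TGI there is no net growth.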

Experiments:
Assay in all cases: NCI-60 cell line screen, 48 h
SNB-19 CNS = system: SNB-19 CNS
NCI-H23 lung = system: NCI-H23 lung
EKVX NSCLC = system: EKVX NSCLC
KM12 colon = system: KM12 colon
DU-145 prostate = system: DU-145 prostate
CAKI-1 renal = system: CAKI-1 renal
MCF7 breast = system: MCF7 breast
SF-295 CNS = system: SF-295 CNS
TK-10 renal = system: TK-10 renal
HT29 colon = system: HT29 colon
LOX IMVI melanoma = system: LOX IMVI melanoma
SK-MEL-28 melanoma = system: SK-MEL-28 melanoma
SN12C renal = system: SN12C renal
RXF 393 renal = system: RXF 393 renal
T-47D breast = system: T-47D breast
OVCAR-8 ovarian = system: OVCAR-8 ovarian
UACC-257 melanoma = system: UACC-257 melanoma
NCI/ADR-RES ovarian = system: NCI/ADR-RES ovarian
NCI-H226 lung = system: NCI-H226 lung
SK-MEL-5 melanoma = system: SK-MEL-5 melanoma
A549 NSCLC = system: A549 NSCLC
HOP-62 NSCLC = system: HOP-62 NSCLC
IGROV1 ovarian = system: IGROV1 ovarian
RPMI-8226 leukemia = system: RPMI-8226 leukemia
NCI-H522 lung = system: NCI-H522 lung
786-0 renal = system: 786-0 renal
MALME-3M melanoma = system: MALME-3M melanoma
OVCAR-5 ovarian = system: OVCAR-5 ovarian
SW-620 colon = system: SW-620 colon
COLO 205 colon = system: COLO 205 colon
HCT-15 colon = system: HCT-15 colon
SF-268 CNS = system: SF-268 CNS
MDA-MB-231 breast = system: MDA-MB-231 breast
U251 CNS = system: U251 CNS
K-562 leukemia = system: K-562 leukemia
BT-549 breast = system: BT-549 breast
SF-539 CNS = system: SF-539 CNS
HCT-116 colon = system: HCT-116 colon
PC-3 prostate = system: PC-3 prostate
SK-OV-3 ovarian = system: SK-OV-3 ovarian
M14 melanoma = system: M14 melanoma
ACHN renal = system: ACHN renal
SR leukemia = system: SR leukemia
UO-31 renal = system: UO-31 renal
UACC-62 melanoma = system: UACC-62 melanoma
MDA-MB-435 = system: MDA-MB-435
MDA-N = system: MDA-N
OVCAR-3 ovarian = system: OVCAR-3 ovarian
SNB-75 CNS = system: SNB-75 CNS
HL-60(TB) leukemia = system: HL-60(TB) leukemia
CCRF-CEM leukemia = system: CCRF-CEM leukemia
MOLT-4 leukemia = system: MOLT-4 leukemia
NCI-H460 lung = system: NCI-H460 lung
SK-MEL-2 melanoma = system: SK-MEL-2 melanoma
A498 renal = system: A498 renal
HCC-2998 colon = system: HCC-2998 colon
OVCAR-4 ovarian = system: OVCAR-4 ovarian

For CN1CN(c2ccccc2)C2(CCN(CCCCCCF)CC2)C1=O, the TGI (SNB-19 CNS) was greater than 100 µM, the TGI (NCI-H23 lung) was greater than 100 µM and the TGI (EKVX NSCLC) was greater than 100 µM. The TGI (KM12 colon) was greater than 100 µM, the TGI (DU-145 prostate) was greater than 100 µM and the TGI (CAKI-1 renal) was greater than 100 µM. For the same molecule, the TGI (MCF7 breast) was 60.6 µM, the TGI (SF-295 CNS) was greater than 100 µM and the TGI (TK-10 renal) was greater than 100 µM. The TGI (HT29 colon) was greater than 100 µM, the TGI (LOX IMVI melanoma) was greater than 100 µM and the TGI (SK-MEL-28 melanoma) was greater than 100 µM. It also gave a TGI (SN12C renal) greater than 100 µM, a TGI (RXF 393 renal) greater than 100 µM and a TGI (T-47D breast) greater than 100 µM. For the same molecule, the TGI (OVCAR-8 ovarian) was greater than 100 µM, the TGI (UACC-257 melanoma) was greater than 100 µM and the TGI (NCI/ADR-RES ovarian) was 40.3 µM. The TGI (NCI-H226 lung) was greater than 100 µM, the TGI (SK-MEL-5 melanoma) was greater than 100 µM and the TGI (A549 NSCLC) was greater than 100 µM. For the same molecule, the TGI (HOP-62 NSCLC) was 93.3 µM, the TGI (IGROV1 ovarian) was greater than 100 µM and the TGI (RPMI-8226 leukemia) was greater than 100 µM. It also gave a TGI (NCI-H522 lung) greater than 100 µM, a TGI (786-0 renal) greater than 100 µM and a TGI (MALME-3M melanoma) greater than 100 µM. The TGI (OVCAR-5 ovarian) was greater than 100 µM, the TGI (SW-620 colon) was greater than 100 µM and the TGI (COLO 205 colon) was 47.3 µM. For the same molecule, the TGI (HCT-15 colon) was greater than 100 µM, the TGI (SF-268 CNS) was greater than 100 µM and the TGI (MDA-MB-231 breast) was greater than 100 µM. It also gave a TGI (U251 CNS) greater than 100 µM, a TGI (K-562 leukemia) greater than 100 µM and a TGI (BT-549 breast) greater than 100 µM. It also gave a TGI (SF-539 CNS) of 92.4 µM, a TGI (HCT-116 colon) greater than 100 µM and a TGI (PC-3 prostate) greater than 100 µM. The TGI (SK-OV-3 ovarian) was greater than 100 µM, the TGI (M14 melanoma) was greater than 100 µM and the TGI (ACHN renal) was greater than 100 µM. For the same molecule, the TGI (SR leukemia) was greater than 100 µM, the TGI (UO-31 renal) was 94.2 µM and the TGI (UACC-62 melanoma) was greater than 100 µM. For the same molecule, the TGI (MDA-MB-435) was greater than 100 µM, the TGI (MDA-N) was greater than 100 µM and the TGI (OVCAR-3 ovarian) was greater than 100 µM. The TGI (SNB-75 CNS) was greater than 100 µM, the TGI (HL-60(TB) leukemia) was greater than 100 µM and the TGI (CCRF-CEM leukemia) was greater than 100 µM. The TGI (MOLT-4 leukemia) was greater than 100 µM.

COC(=O)[C@@](C)(COC(=O)C(C)(C)C)NC(=O)OC(C)(C)C gave a TGI (SNB-19 CNS) greater than 100 µM, a TGI (NCI-H23 lung) greater than 100 µM and a TGI (EKVX NSCLC) greater than 100 µM. For the same molecule, the TGI (KM12 colon) was greater than 100 µM, the TGI (DU-145 prostate) was greater than 100 µM and the TGI (NCI-H460 lung) was greater than 100 µM. It also gave a TGI (CAKI-1 renal) greater than 100 µM, a TGI (MCF7 breast) greater than 100 µM and a TGI (SF-295 CNS) greater than 100 µM. For the same molecule, the TGI (TK-10 renal) was greater than 100 µM, the TGI (SK-MEL-2 melanoma) was greater than 100 µM and the TGI (HT29 colon) was greater than 100 µM. For the same molecule, the TGI (LOX IMVI melanoma) was greater than 100 µM, the TGI (SK-MEL-28 melanoma) was greater than 100 µM and the TGI (SN12C renal) was greater than 100 µM. The TGI (A498 renal) was greater than 100 µM, the TGI (RXF 393 renal) was greater than 100 µM and the TGI (T-47D breast) was greater than 100 µM. The TGI (OVCAR-8 ovarian) was greater than 100 µM, the TGI (UACC-257 melanoma) was greater than 100 µM and the TGI (NCI/ADR-RES ovarian) was greater than 100 µM. It also gave a TGI (NCI-H226 lung) greater than 100 µM, a TGI (SK-MEL-5 melanoma) greater than 100 µM and a TGI (A549 NSCLC) greater than 100 µM. For the same molecule, the TGI (HOP-62 NSCLC) was greater than 100 µM, the TGI (HCC-2998 colon) was greater than 100 µM and the TGI (IGROV1 ovarian) was greater than 100 µM. It also gave a TGI (RPMI-8226 leukemia) greater than 100 µM, a TGI (NCI-H522 lung) greater than 100 µM and a TGI (786-0 renal) greater than 100 µM. The TGI (MALME-3M melanoma) was greater than 100 µM, the TGI (OVCAR-5 ovarian) was greater than 100 µM and the TGI (SW-620 colon) was greater than 100 µM. It also gave a TGI (COLO 205 colon) greater than 100 µM, a TGI (HCT-15 colon) greater than 100 µM and a TGI (SF-268 CNS) greater than 100 µM. The TGI (MDA-MB-231 breast) was greater than 100 µM, the TGI (U251 CNS) was greater than 100 µM and the TGI (K-562 leukemia) was greater than 100 µM. The TGI (BT-549 breast) was greater than 100 µM, the TGI (OVCAR-4 ovarian) was greater than 100 µM and the TGI (SF-539 CNS) was greater than 100 µM. It also gave a TGI (HCT-116 colon) greater than 100 µM, a TGI (PC-3 prostate) greater than 100 µM and a TGI (SK-OV-3 ovarian) greater than 100 µM. For the same molecule, the TGI (M14 melanoma) was greater than 100 µM, the TGI (ACHN renal) was greater than 100 µM and the TGI (SR leukemia) was greater than 100 µM. It also gave a TGI (UO-31 renal) greater than 100 µM, a TGI (UACC-62 melanoma) greater than 100 µM and a TGI (MDA-MB-435) greater than 100 µM. The TGI (MDA-N) was greater than 100 µM, the TGI (SNB-75 CNS) was greater than 100 µM and the TGI (CCRF-CEM leukemia) was greater than 100 µM. For the same molecule, the TGI (MOLT-4 leukemia) was greater than 100 µM.
